Test results reported in BigSolDB 2.1.

O=C(O)C[C@H](O)C(=O)O
solubility (mole fraction)
Details	278.15 K	283.15 K	288.15 K	293.15 K	298.15 K	303.15 K	308.15 K	313.15 K	318.15 K	323.15 K
in acetone	0.136	0.145	0.153	0.163	0.17	0.18	0.189	0.201	0.211	0.225
in acetonitrile	0.045	0.0485	0.0523	0.0559	0.0608	0.0646	0.0684	0.0733	0.0783	0.0838
in ethanol	0.11	0.126	0.145	0.166	0.187	0.207	0.232	0.256	0.283	0.314
in ethyl acetate	0.0017	0.0029	0.005	0.0083	0.0134	0.0213	0.0333	0.0516	0.0763	0.113
in isopropanol	0.117	0.136	0.157	0.178	0.203	0.228	0.256	0.285	0.314	0.345
in n-butanol	0.0832	0.0948	0.109	0.124	0.14	0.159	0.18	0.201	0.225	0.25
in n-propanol	0.0917	0.103	0.118	0.134	0.153	0.172	0.193	0.215	0.238	0.264
